Eight compounds from patent US9315602B2, “Method for producing olefin polymer” (Mitsui Chemicals, Inc., priority 2012, dated 2016) can be followed below.

A short description of series [1]: Solubility of bridged metallocene compound in n-hexane at 25° C. The settings on record: nitrogen atmosphere, 10 mg of catalyst.
The nature of series [2]: Propylene polymerization with catalyst solution (polymerization activity). The protocol: An autoclave made of SUS and having an inner volume of 15 mL was thoroughly purged with nitrogen, and 0.4 mL (0.05 M, 20 μmol) of triisobutylaluminum and 2.7 mL of a solvent which served as a polymerization solvent and in which cyclohexane and hexane had been mixed with each other at a mixing ratio of cyclohexane:hexane=9:1 (volume ratio) were put into the autoclave. The content was stirred at 600-times rotation per minute. […]
Under a nitrogen atmosphere, 2.5 mg (molecular weight: 835.07 g/mol) of the catalyst (a) which served as a bridged metallocene compound was put into a Schlenk flask and dissolved in 5.5 mL of hexane. Then, 0.36 mL of a suspension of modified methylaluminoxane (n-hexane solvent, 4.15 M and 1.49 mmol on an aluminum atom basis) was added thereto at room temperature under stirring to prepare a catalyst solution in which the concentration of the catalyst (a) was 0.00051 M.
The catalyst solution was held at room temperature under a nitrogen atmosphere for 30 minutes, 0.2 mL (0.00051 M, 0.10 μmol) of the catalyst solution and 0.7 mL of a solvent which served as a polymerization solvent and in which cyclohexane and hexane had been mixed with each other at a mixing ratio of cyclohexane:hexane=9:1 (volume ratio) were subsequently put into the autoclave, and then the temperature was increased to 65° C. to initiate polymerization. […]

For the compound `CC(C)(C)c1cc2c3cc(C(C)(C)C)c(-c4ccccc4)cc3[c-](C(Cc3ccccc3)(Cc3ccccc3)[c-]3cccc3)c2cc1-c1ccccc1.[Cl-].[Cl-].[Zr+4]` [catalyst (h), Dibenzylmethylene(cyclopentadienyl)(2,7-diphenyl-3,6-di-tert-butylfluorenyl)zirconium Dichloride, reference compound], in series [1], the “solubility determined from the amount of n-hexane necessary for the dissolution” value (from here on “solubility determined from the amount”) is “not more than 0.278 mmol/L”.

With “Benzyl(p-chlorophenyl)methylene(cyclopentadienyl)(2,7-di-p-chlorophenyl-3,6-di-tert-butylfluorenyl)zirconium Dichloride [catalyst (d)]”, the “solubility determined from the amount” value in series [1] was 901 µM.

Regarding “Benzyl(p-chlorophenyl)methylene(cyclopentadienyl)(2,7-diphenyl-3,6-di-tert-butylfluorenyl)zirconium Dichloride [catalyst (c)]”, the “solubility determined from the amount” value in series [1] is 1585 µM.

Consider “Benzyl(phenyl)methylene(cyclopentadienyl)(2,7-di-p-chlorophenyl-3,6-di tert-butylfluorenyl)zirconium Dichloride [catalyst (b)]”, for which, in series [1], the “solubility determined from the amount” value was 4098 µM.

Consider “Benzyl(phenyl)methylene(cyclopentadienyl)(2,7-diphenyl-3,6-di-tert-butylfluorenyl)zirconium Dichloride [catalyst (a)]”, for which the polymerization activity in series [2] (Example 1: propylene 7 bar, 9 minutes, catalyst solution 0.00051 M held 30 minutes, modified methylaluminoxane) is recorded as 39.90 kg-PP/mmol-Zr·hr. For the same compound, in series [1], the “solubility determined from the amount” value is 1005 µM.

In the case of “Diphenylmethylene(cyclopentadienyl)(2,7-diphenyl-3,6-di-tert-butylfluorenyl)zirconium Dichloride [catalyst (g), reference compound]”, the polymerization activity in series [2] (Comparative Example 1: propylene 7 bar, 10 minutes, supernatant catalyst solution held 30 minutes, assuming catalyst concentration 0.00050 M) was determined as 3.00 kg-PP/mmol-Zr·hr. Also, the “solubility determined from the amount” value in series [1] is “not more than 0.211 mmol/L”.

On to “Methyl(p-tolyl)methylene(cyclopentadienyl)(2,7-diphenyl-3,6-di-tert-butylfluorenyl)zirconium Dichloride [catalyst (e)]”, for which, in series [1], the “solubility determined from the amount” value was determined as 6221 µM.

Take “n-octyl(phenyl)methylene(cyclopentadienyl)(2,7-diphenyl-3,6-di-tert-butylfluorenyl)zirconium Dichloride [catalyst (f)]”: the “solubility determined from the amount” value in series [1] came to 7683 µM.
